Data on three compounds can be found in PMC4112042, “Phase 1 dose-escalation study of the PARP inhibitor CEP-9722 as monotherapy or in combination with temozolomide in patients with solid tumors” (Cancer Chemotherapy and Pharmacology, 2014).

One data set relates to PARP-2. The following applies: PARP-2 enzyme; cited from earlier work.
For data set [1], the system named is chemoresistant tumor cells. On the set-up: method as in PMID 17699724. The following applies: in vitro and in xenograft models; cited from earlier work.
For data set [2] the following is noted: nonacidic environments; cited from earlier work.
For data set [3] the following is noted: in vivo; cited from earlier work.
A short description of data set [4]: Plasma pharmacokinetics of CEP-8983 after oral CEP-9722. The format is in vivo, human. On the set-up: AUC0–∞, mean ± SD / AUC0–t, mean ± SD / AUCτ, mean ± SD: concentration or dose not given beside the values. Here is the method: Pharmacokinetic serum samples were collected on day 1 of cycle 1 pre-dose and 0.5, 1, 2, 3, 4, 6, 8, 10, and 24 h post-dose; and on day 5 of cycle 1 and cycle 2 pre-dose, and 0.5, 1, 2, 3, 4, 6, 8, 10, 24, and 48 h post-dose. Urine samples were obtained on day 1 of cycle 1 during 4 intervals in the 24 h following study drug administration. Pharmacokinetic parameters (area under the plasma drug concentration–time curve from time 0 to infinity [AUC0–∞], AUC from time 0 to the time of the last measurable drug concentration [AUC0–t], AUC for 1 dosing interval [AUCτ] following multiple doses, maximum observed plasma concentration [C max], and time to maximum observed plasma concentration [T max]) were summarized at each visit (day 1 of cycle 1 and day 5 of cycles 1 and 2) using descriptive statistics.

The next data set has as its system human bone marrow cells. More on the design: method as in PMID 17699724. The following applies: CFU-GM colony-forming assay; cited from earlier work.
A further data set concerns PARP-1. The following applies: PARP-1 enzyme; cited from earlier work.
Data set [5] concerns breast and ovarian cancer patients with BRCA mutations. On the set-up: method as in PMID 20609467, PMID 20609468. The following applies: monotherapy; cited from earlier work.
Data set [6] concerns patients with metastatic melanoma. The following applies: phase 2, metastatic melanoma, combination with temozolomide; cited from earlier work.
Where [7] appears, read: day 5 of cycle 1, nonsmoker without medication affecting gastric pH, n = 13.
[8] abbreviates: day 5 of cycle 1, smoker and/or with medication affecting gastric pH, n = 11.

In general, IC50 refers to the concentration needed to halve the response being measured. `COc1cccc2[nH]c3c4c(c5c(c3c12)C(=O)NC5=O)CCC4` [CEP-8983]: in the data set with PARP-2, the concentration for half-maximal inhibition (IC50) is 6 nM. Also, in data set [1], the “sensitivity of chemoresistant tumor cells to temozolomide” value was “increased the sensitivity”. In addition, the solubility result in data set [2] is “poorly soluble”. Also, the oral bioavailability result in data set [3] is listed as “low oral bioavailability”. Moreover, in data set [4] (day 1 of cycle 1, nonsmokers not receiving gastric pH-modifying medications), the “mean AUC0–t” value is 4,960.6 ng h/mL. For the same compound, the “mean AUC0–t” value in data set [4] (day 1 of cycle 1, smokers and/or patients receiving gastric pH-modifying medications) is 2,747.3 ng h/mL. In data set [4] (setting [7]), the “AUC0–t, mean ± SD” value is given as 3,138.0 ± 2,160.74 ng h/mL; the “AUC0–∞, mean ± SD” value is 4,111.0 ± 4,126.79 ng h/mL; the “AUCτ, mean ± SD” value was 3,851.1 ± 3,578.78 ng h/mL; the “C max, mean ± SD” value is listed as 607.5 ± 319.87 ng/mL. In addition, in data set [4] (setting [7]), the “CL/F, mean ± SD” value came to 20.4 ± 25.80 L/h; the “Percentage extrapolation, mean ± SD” value is recorded as 3.7 ± 3.82%; the “V/F, mean ± SD” value is 58.1 ± 60.23 L; the “t max, mean ± SD” value was found to be 36 ± 39.6 min. In addition, in data set [4] (setting [7]), the “λ z, mean ± SD” value came to 0.1 ± 0.13 h⁻¹. Besides, in data set [4] (setting [8]), the “AUC0–t, mean ± SD” value is 1,339.3 ± 2,127.07 ng h/mL; the “AUC0–∞, mean ± SD” value is 2,838.9 ± 5,740.57 ng h/mL; the “AUCτ, mean ± SD” value was 2,304.7 ± 4,161.29 ng h/mL; the “C max, mean ± SD” value is given as 352.5 ± 380.57 ng/mL. Also, in data set [4] (setting [8]), the “CL/F, mean ± SD” value is 67.1 ± 62.14 L/h; the “Percentage extrapolation, mean ± SD” value is given as 5.5 ± 8.29%; the “V/F, mean ± SD” value is on record as 102.3 ± 100.76 L; the “t 1/2, mean ± SD” value amounted to 42 ± 46.2 min. In data set [4] (setting [8]), the “t max, mean ± SD” value was 36 ± 39.6 min and the “λ z, mean ± SD” value was 0.2 ± 0.21 h⁻¹. The “mean AUC0–t” value in data set [4] (day 5 of cycle 2, nonsmokers not receiving gastric pH-modifying medications) was 2,574.4 ng h/mL. For the same compound, in data set [4] (day 5 of cycle 2, smokers and/or patients receiving gastric pH-modifying medications), the “mean AUC0–t” value is 1,457.9 ng h/mL. Also, the myelotoxicity of temozolomide result in the data set on human bone marrow cells is reported as “only modest increases”. Further, in the data set with PARP-1, the IC50 is 20 nM.

Take `O=C(c1cc(Cc2n[nH]c(=O)c3ccccc23)ccc1F)N1CCN(C(=O)C2CC2)CC1` [olaparib]: the RECIST responses in data set [5] is reported as 30–40%.

Regarding `CNCc1ccc(-c2[nH]c3cc(F)cc4c3c2CCNC4=O)cc1` [rucaparib], in data set [6], the “patients requiring a reduction in the dose of temozolomide due to enhanced myelosuppression” value is “approximately half”.
